In article PMC7947852, “Identification and Characterization of Chalcone Isomerase Genes Involved in Flavonoid Production in Dracaena cambodiana” (Frontiers in Plant Science, 2021):

Biological target: T1, DcCHI1 (Dracaena cambodiana, UniProt A0A8A5KFS9)
T1 construct: gene CHI1
T1 sequence (A0A8A5KFS9 1-219): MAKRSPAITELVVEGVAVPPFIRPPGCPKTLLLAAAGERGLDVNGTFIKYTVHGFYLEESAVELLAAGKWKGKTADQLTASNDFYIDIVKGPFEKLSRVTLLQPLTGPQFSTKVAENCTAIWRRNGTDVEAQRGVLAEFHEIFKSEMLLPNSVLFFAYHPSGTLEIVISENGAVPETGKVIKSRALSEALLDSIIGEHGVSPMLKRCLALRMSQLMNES
Experiment: HPLC of reaction product
Assay type: biochemical
Settings: 100 mM Tris-HCl pH 7.6, 30 °C, 2 min; 5 µl of 5 mM substrate in 200 µl

SMILES	HPLC of reaction product
O=C(/C=C/c1ccc(O)cc1)c1c(O)cc(O)cc1O [naringenin chalcone]	recombinant DcCHI1 could catalyze the formation of naringenin with naringenin chalcone as the substrate
O=C1C[C@@H](c2ccc(O)cc2)Oc2cc(O)cc(O)c21 [naringenin]	recombinant DcCHI1 could catalyze the formation of naringenin with naringenin chalcone as the substrate
